These results are taken from US20060134206A1, “Oral compositions for treatment of diseases” (priority 2003, published 2006).

The conditions of series [1]: allows once daily treatment; cited from earlier work.
Series [2] concerns human vascular ATP-dependent K+ channels. The conditions noted are these: cited from earlier work.
For series [3] the following is noted: cited from earlier work.
For the next series, the system named is type 2 diabetes patients. The conditions noted are these: overweight type 2 diabetes patients assigned metformin; microvascular and macrovascular; cited from earlier work.
The conditions of series [4]: oral, conventional metformin; cited from earlier work.
Series [5] is described as follows: In-house study: metformin co-administered with propantheline. As to conditions: compared with metformin alone. Format: in vivo.
A further series relates to people with diabetes. The conditions noted are these: versus placebo, cited from earlier work.

Consider `CCC1=C(C)CN(C(=O)NCCc2ccc(S(=O)(=O)NC(=O)N[C@H]3CC[C@H](C)CC3)cc2)C1=O` [glimepiride], for which the long life in series [1] is 9 h. Further, in series [2], the “effect on human vascular ATP-dependent K+ channels” value is recorded as “no effect”.
`CN(C)C(=N)N=C(N)N` [metformin]: the drug in plasma result in series [3] (drug perfused into the colon) was “not detectable”. Also, the “area under the plasma concentration-time profile, jejunum versus ileum perfusion” value in series [3] (perfusion into jejunum compared with ileum) was 2.5 fold. Further, the “relative risk reduction of developing any diabetes related end points” value with type 2 diabetes patients was 32%. Moreover, the “gastrointestinal absorption apparently complete (time after ingestion)” value in series [4] was ≤ 6 h. Besides, in series [5], the AUC entry is given as “increased”, the Tmax result is “delayed” and the “time period over which therapeutically beneficial plasma levels were maintained” value is reported as “extended”.
Take `CCOC(=O)[C@H](CCc1ccccc1)N[C@@H](C)C(=O)N1[C@H](C(=O)O)C[C@@H]2CCC[C@@H]21` [ramipril]: in the series on people with diabetes (3,577 people with diabetes, 4.5 years), the “lowering of relative risk of a major cardiovascular event (myocardial infarction, stroke or cardiovascular death)” value was 25%. In the series with people with diabetes (3,577 people with diabetes), the “lowering of absolute risk of a major cardiovascular event” value is 4.5%. Besides, in the series on people with diabetes (people with diabetes), the “absolute risk reduction of overt nephropathy” value is 2.0% and the “reduction of relative risk of overt nephropathy” value is given as 24%.
